Results as given in PubChem BioAssay (NCI).
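In this assay, cells in 96-well plates receive the compound at five concentrations for 48 hours. Endpoints are linearly interpolated between the surrounding concentrations. Here, GI50 denotes the concentration required for 50% inhibition of growth. TGI denotes the concentration required for complete inhibition of growth.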 Where a SMILES comes first, the peptide text is derived from it. The star is where a group is joined. ONb = O=[N+]([O-])c1ccc(CO*)cc1; Boc = CC(C)(C)OC(=O)*

Experiments:
Experiment in all cases: DTP human tumour cell line panel, 48 h
HT29 colon = system: HT29 colon
PC-3 prostate = system: PC-3 prostate
NCI-H522 lung = system: NCI-H522 lung
SF-295 CNS = system: SF-295 CNS
OVCAR-5 ovarian = system: OVCAR-5 ovarian
NCI-H460 lung = system: NCI-H460 lung
SK-MEL-2 melanoma = system: SK-MEL-2 melanoma
EKVX NSCLC = system: EKVX NSCLC
RPMI-8226 leukemia = system: RPMI-8226 leukemia
RXF 393 renal = system: RXF 393 renal

Compound | TGI (HT29 colon) [µM] | TGI (PC-3 prostate) [µM] | TGI (NCI-H522 lung) [µM] | TGI (SF-295 CNS) [µM] | TGI (OVCAR-5 ovarian) [µM] | TGI (NCI-H460 lung) [µM] | TGI (SK-MEL-2 melanoma) [µM] | TGI (EKVX NSCLC) [µM] | TGI (RPMI-8226 leukemia) [µM] | TGI (RXF 393 renal) [µM] | GI50 (HT29 colon) [µM] | GI50 (PC-3 prostate) [µM] | GI50 (NCI-H522 lung) [µM] | GI50 (OVCAR-5 ovarian) [µM] | GI50 (NCI-H460 lung) [µM] | GI50 (SK-MEL-2 melanoma) [µM] | GI50 (EKVX NSCLC) [µM] | GI50 (RPMI-8226 leukemia) [µM]
COc1ccc2oc(OC)c(CC=C(C)C)c(=O)c2c1C | > 100 | > 100 | > 100 | > 100 | > 100 | > 100 | > 100 | > 100 | > 100 |  |  |  |  |  |  |  |  | 
Cc1c2cnccc2c(C)c2c1c1ccccc1n2CCCCCCNCc1ccccc1 | 3.13 |  | 3.63 | 3.47 | 3.31 | 1.86 | 4.24 | 3.94 | 3.44 | 4.08 |  |  |  |  |  |  |  | 
CC(=O)N(O)[C@@H]1CC[C@H](n2cnc3c(N)ncnc32)C1 |  | > 100 | > 100 | > 100 | > 100 | > 100 | > 100 | > 100 | > 100 | > 100 |  |  |  |  |  |  |  | 
CN1CCC(CN2c3ccccc3Sc3ccccc32)CC1 | 25.3 |  | 28.3 | 29.3 | 33.5 | 28.5 | 31 | 27.5 | 30.7 | 15.1 |  |  |  |  |  |  |  | 
CN(C)c1nncc2[nH]cnc12 | > 100 | > 100 |  | > 100 | > 100 | > 100 | > 100 | > 100 | > 100 | > 100 |  |  |  |  |  |  |  | 
O=c1[nH]c(=O)n(C2CC(O)C(CO)O2)cc1C1=NC1 (stereo unspecified) | > 100 |  |  | > 100 | > 100 | > 100 | > 100 | > 100 | > 100 | > 100 |  |  |  |  |  |  |  | 
COc1cc(/C=C/C(=O)c2c(C)nc3ccccc3c2C)ccc1OCCCOc1cc2c(cc1OC)C(=O)N1CCC[C@H]1C=N2 | 3.03 | 1.15 | 22.9 |  | 0.0868 |  | 0.331 | 0.453 | 0.0477 |  | 0.028 | 0.0326 | 0.0337 | 0.03 | 0.0292 | 0.0877 | 0.0555 | 0.014
COc1cc(COC(=O)N(CC(=O)O)c2ccccc2)c([N+](=O)[O-])cc1OC | > 100 | > 100 |  | > 100 | > 100 | > 100 |  | > 100 | > 100 | > 100 |  |  |  |  |  |  |  | 
COC(=O)C1=C(O)C(C(=O)OC)[C@]2(O)[C@H](C(=O)OC)[C@H]1C[C@@H](c1c(Cl)cccc1Cl)[C@H]2C(=O)OC (stereo partly specified) | 7.16 | 10.5 |  | 7.57 |  | 6.55 | 3.33 | 18.4 | 3.38 | 3.92 |  |  |  |  |  |  |  | 
CCC1CN2CCc3c([nH]c4ccccc34)C2C[C@@H]1CC(=O)N(C)C (stereo partly specified) | > 100 |  | > 100 | > 100 | > 100 | > 100 | > 100 | > 100 |  | > 100 |  |  |  |  |  |  |  | 
N#CCCN(CCC#N)c1ccc(/C=C2\N=C(c3ccccc3)N(NC(N)=S)C2=O)cc1 | > 100 | > 100 |  | > 100 | > 100 | > 100 | > 100 | > 100 | > 100 | > 100 |  |  |  |  |  |  |  | 
O=C(/C=C/c1ccc(/C=C/C(=O)c2ccc(O)cc2)cc1)c1ccc(O)cc1 | > 100 | > 100 |  | > 100 | > 100 | > 100 | > 100 | > 100 | > 100 | > 100 |  |  |  |  |  |  |  | 
CC(C)CC(NC(=O)OC(C)(C)C)C(=O)NC(CCC(=O)OCc1ccc([N+](=O)[O-])cc1)C(=O)OCc1ccc([N+](=O)[O-])cc1 (stereo not drawn) (Boc-Leu-Glu(ONb)-ONb; configuration not given here) | 94.7 | > 100 |  | > 100 | > 100 | 56.1 | 78.3 | > 100 | 88.4 |  |  |  |  |  |  |  |  | 
CCOC(=O)c1ccc(C(=O)/C(C(C)=O)=C2\CCCN2C)n1C |  | > 100 | > 100 | > 100 | > 100 | > 100 | > 100 | > 100 | > 100 | > 100 |  |  |  |  |  |  |  | 
Cc1ccc(OC2CC(n3cnc4ncnc(Cl)c43)OC2Oc2ccc(C)cc2)cc1 (stereo unspecified) | > 100 | 36.3 | > 100 | 56.7 | 58.3 | > 100 | 32.2 | > 100 |  |  |  |  |  |  |  |  |  | 
O=C1CCCC/C1=C\c1ccc(Br)cc1 |  | > 100 | 31.1 | 49.7 |  | 98.2 | 46.4 | 62.8 | 57.3 |  |  |  |  |  |  |  |  | 
Cn1c(-c2ccccc2)cc2c3ccsc3c3ccsc3c21 | > 100 | > 100 | > 100 | > 100 | > 100 | > 100 | > 100 |  | > 100 | > 100 |  |  |  |  |  |  |  | 
O=C1[C@@H]2[C@@H](c3ccccc3)[C@]2(Cl)C(=O)[C@H]2[C@H](c3ccccc3)[C@@]12Cl | > 100 | > 100 | > 100 | > 100 | > 100 | > 100 | > 100 | > 100 |  | > 100 |  |  |  |  |  |  |  | 
COc1ccc(/C=C2\CCC(CNc3ccc(OC)cc3)C2=O)cc1 (stereo unspecified) | 33.2 | 37 | 11.6 | > 31.6 | 38.1 | > 85.3 |  | > 73.5 | > 24 | 29.9 |  |  |  |  |  |  |  | 
CCN1CCN(c2nc3ccc([N+](=O)[O-])cc3nc2C(=O)c2ccccc2)CC1 |  | 32.3 | 10.3 | 30.3 | 36.1 | 51.4 | 29.3 | 29.6 | 30.9 | 32.8 |  |  |  |  |  |  |  | 
CC1C2CC(C(S(=O)(=O)N3CCOCC3)/C2=N\O)C1(C)C (stereo unspecified) | > 100 | > 100 | > 100 | > 100 |  | > 100 |  | > 100 | > 100 | > 100 |  |  |  |  |  |  |  | 
